From patent US10167300B2, “Metalloenzyme inhibitor compounds as fungicides” (priority 2014, dated 2019) come the findings set out here.

Holding throughout (type): in vivo, Mycosphaerella graminicola on wheat plants (variety Yuma)
Assay [1] deals with Mycosphaerella graminicola; Anamorph: Septoria tritici; Bayer Code SEPTTR (standard laboratory isolate, SI SEPTTR). Nature of the assay: Type A (high volume) assay, leaf blotch of wheat, standard laboratory SEPTTR isolate (SI SEPTTR). As to conditions: Zymoseptoria tritici, standard laboratory isolate, high volume, 50 ppm, wheat (Yuma). The essentials: (§1)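 Wheat seedlings (Yuma, first leaf emerged) sprayed with acetone/Triton X-100 solutions (Type A) or 10% EC diluted in 0.1% Trycol at 200 L/ha (Type B), inoculated before or after spraying. Inoculated plants held 3 days at 20 °C, 100% RH, then greenhouse; % disease control from severity versus untreated plants.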

A short description of assay [2]: Type B (low volume, EC formulation, track sprayer 200 L/ha) assay, leaf blotch of wheat, SEPTTR field isolate (FI SEPTTR). As to conditions: Zymoseptoria tritici, 72 h, field isolate, low volume EC, 100 g/ha, wheat (Yuma). The essentials:
as §1

Assay [3] deals with Mycosphaerella graminicola; Anamorph: Septoria tritici; Bayer Code SEPTTR (standard laboratory isolate, SI SEPTTR). The assay is described as follows: Type B (low volume, EC formulation, track sprayer 200 L/ha) assay, leaf blotch of wheat, standard laboratory SEPTTR isolate (SI SEPTTR). As to conditions: Zymoseptoria tritici, 72 h, standard laboratory isolate, low volume EC, 100 g/ha, wheat (Yuma). The method, then: Example A: Evaluation of Fungicidal Activity: Leaf Blotch of Wheat (Mycosphaerella graminicola; Anamorph: Septoria tritici; Bayer Code SEPTTR)
For Type A assays, technical grades of the experimental fungicides in Table 4 below were dissolved in acetone, and then mixed with nine volumes of water containing 110 ppm Triton X-100. The fungicide solutions were applied onto wheat seedlings using an automated booth sprayer. For Type B assays, emulsifiable concentrate (EC) formulations of technical grades of the experimental fungicides in Table 4 below were prepared at 10% (w/v), and then mixed with 150 volumes of 0.1% Trycol 5941. These solutions were applied onto wheat seedlings using an automated track sprayer at 200 L/ha. All sprayed plants were allowed to air dry prior to further handling.
Wheat plants (variety Yuma) were grown from seed in a greenhouse in 50% mineral soil/50% soil-less Metro mix until the first leaf was fully emerged, with 7-10 seedlings per pot. Prior to or after application of experimental fungicides, plants were inoculated either with spores of a standard laboratory SEPTTR isolate (SI SEPTTR) or with spores from a SEPTTR field isolate collected from Wellsbourne, England in 2012 (FI SEPTTR). After inoculation the plants were kept for 3 days at 20° C. in 100% relative humidity (one day in a dark dew chamber followed by two days in a lighted dew chamber). Plants were then transferred to a 20° C. greenhouse for disease development. When disease symptoms were fully expressed on untreated plants, infection levels on treated plants were assessed on a scale of 0 to 100 percent disease severity. Percent disease control was calculated using the ratio of disease severity on treated plants relative to untreated plants.

Setting [4] is: 24 h, 1 Day Protectant, read-out: Disease Control, SI SEPTTR Type A Assay (50 ppm) 1 DP.
The mark [5] stands for this setting: 3 Day Curative, read-out: Disease Control, FI SEPTTR Type B Assay (100 g/ha) 3 DC.
Where [6] appears, read: 3 Day Protectant, read-out: Disease Control, FI SEPTTR Type B Assay (100 g/ha) 3 DP.
[7] abbreviates: 3 Day Curative, read-out: Disease Control, SI SEPTTR Type B Assay (100 g/ha) 3 DC.
Where [8] appears, read: 3 Day Protectant, read-out: Disease Control, SI SEPTTR Type B Assay (100 g/ha) 3 DP.
[9] abbreviates: 72 h, 3 Day Curative, read-out: Disease Control, SI SEPTTR Type A Assay (50 ppm) 3 DC.

Like-named read-outs stand apart in the source and are kept apart here.

As for `CC(C)(C)C(O)(c1cncnc1)c1ccc(-c2ccccc2OC(F)(F)F)cn1` (centres unmarked) [Compound 104], in assay [1] (setting [4]), the pest or weed control at 50 ppm was 80 to 100%. Further, the pest or weed control at 100 g/ha in assay [2] (setting [5]) is less than 40%; in assay [2] (setting [6]), 80 to 100%; in assay [3] (setting [7]), 80 to 100%; in assay [3] (setting [8]) it was 80 to 100%.
As to `COc1ncncc1C(O)(c1ccc(-c2ccc(C3(C#N)CC3)cc2)cn1)C(C)(C)C` (centres unmarked) [Compound 169], the pest or weed control at 50 ppm in assay [1] (setting [4]) fell in the range of 80 to 100%. The pest or weed control at 100 g/ha in assay [2] (setting [5]) is 80 to 100%; in assay [2] (setting [6]), 80 to 100%; in assay [3] (setting [7]), 80 to 100%; in assay [3] (setting [8]) it was 60 to 79%.
Consider `CC(C)(C)C(O)(c1cccnc1)c1ccc(-c2ccc(C3(C#N)CC3)cc2)cn1` (centres unmarked) [Compound 145], for which the pest or weed control at 50 ppm in assay [1] (setting [4]) was in the range of 80 to 100%. In addition, the pest or weed control at 100 g/ha is 80 to 100% in assay [2] (setting [5]), 80 to 100% in assay [2] (setting [6]), 80 to 100% in assay [3] (setting [7]) and 60 to 79% in assay [3] (setting [8]).
Consider `CC(C)C(O)(Cc1cncnc1)c1ccc(-c2ccc(Cl)cc2)cn1` (centres unmarked) [Compound 38], for which the pest or weed control at 50 ppm in assay [1] (setting [4]) and in assay [1] (setting [9]) was 80 to 100% each time. The pest or weed control at 100 g/ha in assay [2] (setting [5]) fell in the range of 80 to 100%; in assay [2] (setting [6]), 40 to 59%; in assay [3] (setting [7]), 80 to 100%; in assay [3] (setting [8]) it was 80 to 100%.
With `CC(C)(C)C(O)(Cc1cncnc1)c1ccc(-c2ccc(Cl)cc2)cn1` (centres unmarked) [Compound 51], the pest or weed control at 50 ppm in assay [1] (setting [4]) and in assay [1] (setting [9]) was 80 to 100% in each case. The pest or weed control at 100 g/ha lay in the range of 60 to 79% in assay [2] (setting [5]), 60 to 79% in assay [2] (setting [6]), 40 to 59% in assay [3] (setting [7]) and 60 to 79% in assay [3] (setting [8]).
In the case of `CC(C)(C)C(O)(c1ccc(-c2ccc(OC(F)(F)F)cc2)cn1)c1cncs1` (centres unmarked) [Compound 84], the pest or weed control at 50 ppm in assay [1] (setting [4]) lay within 80 to 100%. In addition, the pest or weed control at 100 g/ha in assay [2] (setting [5]) fell in the range of 60 to 79%; in assay [2] (setting [6]), 60 to 79%; in assay [3] (setting [7]), 80 to 100%; in assay [3] (setting [8]), 80 to 100%.
Consider `CCC(C)(C)C(O)(c1cncnc1)c1ccc(-c2ccc(OC(F)(F)F)cc2)cn1` (centres unmarked) [Compound 93, 2,2-dimethyl-1-pyrimidin-5-yl-1-[5-[4-(trifluoromethoxy)phenyl]-2-pyridyl]butan-1-ol], for which, in assay [1] (setting [4]), the pest or weed control at 50 ppm fell in the range of 80 to 100%. The pest or weed control at 100 g/ha in assay [2] (setting [5]) is 60 to 79%; in assay [2] (setting [6]), 80 to 100%; in assay [3] (setting [7]), 80 to 100%; in assay [3] (setting [8]) it was 80 to 100%.
For `OC(c1cccnc1)(c1ccc(-c2ccc(OC(F)(F)F)cc2)cn1)c1ccc(F)cc1F` (centres unmarked) [Compound 91], the pest or weed control at 50 ppm in assay [1] (setting [4]) fell in the range of 80 to 100%. For the same compound, the pest or weed control at 100 g/ha in assay [2] (setting [5]) fell in the range of 40 to 59%; in assay [2] (setting [6]), 80 to 100%; in assay [3] (setting [7]), 60 to 79%; in assay [3] (setting [8]), 80 to 100%.
With `Cc1cc(OC(F)(F)F)ccc1-c1ccc(C(O)(c2cccnc2)C(C)(C)C)nc1` (centres unmarked) [Compound 146], the pest or weed control at 50 ppm in assay [1] (setting [4]) lay in the range of 80 to 100%. Further, the pest or weed control at 100 g/ha was in the range of 80 to 100% in assay [2] (setting [5]), 60 to 79% in assay [2] (setting [6]), 80 to 100% in assay [3] (setting [7]) and 80 to 100% in assay [3] (setting [8]).
Consider `OC(c1cncnc1)(c1ccc(Oc2ccc(C(F)(F)F)cc2)cn1)C1CC1` (centres unmarked) [Compound 17], for which the pest or weed control at 50 ppm in assay [1] (setting [4]) and in assay [1] (setting [9]) was 80 to 100% in each case. Besides, the pest or weed control at 100 g/ha lay in the range of 60 to 79% in assay [2] (setting [5]), 60 to 79% in assay [2] (setting [6]), 80 to 100% in assay [3] (setting [7]) and 80 to 100% in assay [3] (setting [8]).
In the case of `CC(C)(C)C(O)(c1cccnc1)c1ccc(-c2ccc(OC(F)(F)F)cc2)cn1` (centres unmarked) [Compound 80], the pest or weed control at 50 ppm in assay [1] (setting [4]) lay within 80 to 100%. Also, the pest or weed control at 100 g/ha in assay [2] (setting [5]), in assay [2] (setting [6]), in assay [3] (setting [7]) and in assay [3] (setting [8]) was 80 to 100% in each case.
On to `Cc1cc(C2(C#N)CC2)ccc1-c1ccc(C(O)(c2cncnc2)C(C)(C)C)nc1` (centres unmarked) [Compound 158], for which the pest or weed control at 50 ppm in assay [1] (setting [4]) lay in the range of 80 to 100%. Also, the pest or weed control at 100 g/ha in assay [2] (setting [5]), in assay [2] (setting [6]), in assay [3] (setting [7]) and in assay [3] (setting [8]) was 80 to 100% in each case.
In the case of `OC(c1cncnc1)(c1ccc(Oc2ccc(Cl)cn2)cn1)C1CC1` (centres unmarked) [Compound 14], the pest or weed control at 50 ppm in assay [1] (setting [4]) and in assay [1] (setting [9]) was 80 to 100% throughout. In addition, the pest or weed control at 100 g/ha is 40 to 59% in assay [2] (setting [5]), 60 to 79% in assay [2] (setting [6]), 60 to 79% in assay [3] (setting [7]) and 60 to 79% in assay [3] (setting [8]).
With `CC(C)(C)C(O)(c1cncnc1)c1ccc(-c2ccc(C(F)(F)F)cc2)cn1` (centres unmarked) [Compound 96], the pest or weed control at 50 ppm in assay [1] (setting [4]) was in the range of 80 to 100%. In addition, the pest or weed control at 100 g/ha in assay [2] (setting [5]), in assay [2] (setting [6]), in assay [3] (setting [7]) and in assay [3] (setting [8]) was 80 to 100% each time.
On to `CSc1ccc(-c2ccc(C(O)(c3cncnc3)C(C)(C)C)nc2)cc1` (centres unmarked) [Compound 98], for which, in assay [1] (setting [4]), the pest or weed control at 50 ppm fell in the range of 80 to 100%. Further, the pest or weed control at 100 g/ha in assay [2] (setting [5]), in assay [2] (setting [6]), in assay [3] (setting [7]) and in assay [3] (setting [8]) was 80 to 100% each time.
Take `CC(C)(C)C(O)(c1cncnc1)c1ccc(-c2ccc(OC(F)(F)F)cc2)cn1` (centres unmarked) [Compound 27, 2,2-dimethyl-1-(pyrimidin-5-yl)-1-(5-(4-(trifluoro-methoxy)phenyl)pyridin-2-yl)propan-1-ol]: the pest or weed control at 50 ppm in assay [1] (setting [4]) and in assay [1] (setting [9]) was 80 to 100% throughout. Besides, the pest or weed control at 100 g/ha in assay [2] (setting [5]), in assay [2] (setting [6]), in assay [3] (setting [7]) and in assay [3] (setting [8]) was 80 to 100% in each case.
Take `CC(C)(C)C(O)(c1cncnc1)c1ccc(-c2ccccc2)cn1` (centres unmarked) [Compound 114]: the pest or weed control at 50 ppm in assay [1] (setting [4]) fell in the range of 60 to 79%. Besides, the pest or weed control at 100 g/ha was in the range of 80 to 100% in assay [2] (setting [5]), 60 to 79% in assay [2] (setting [6]), 80 to 100% in assay [3] (setting [7]) and 80 to 100% in assay [3] (setting [8]).
Regarding `OC(c1cccnc1)(c1ccc(-c2ccc(OC(F)F)cc2)cn1)C1CC1` (centres unmarked) [Compound 81], the pest or weed control at 50 ppm in assay [1] (setting [4]) was 80 to 100%. Besides, the pest or weed control at 100 g/ha in assay [2] (setting [5]) is less than 40%; in assay [2] (setting [6]), 80 to 100%; in assay [3] (setting [7]), 80 to 100%; in assay [3] (setting [8]), 60 to 79%.
As for `CC(C)(C)C(O)(c1cncnc1)c1ccc(-c2ccc(F)cc2)cn1` (centres unmarked) [Compound 115], the pest or weed control at 50 ppm in assay [1] (setting [4]) was in the range of 80 to 100%. Moreover, the pest or weed control at 100 g/ha in assay [2] (setting [5]), in assay [2] (setting [6]), in assay [3] (setting [7]) and in assay [3] (setting [8]) was 80 to 100% in each case.
With `OC(c1ccc(-c2ccc(OC(F)(F)F)cc2)cn1)(c1cncs1)C1CC1` (centres unmarked) [Compound 89], the pest or weed control at 50 ppm in assay [1] (setting [4]) is 80 to 100%. In addition, the pest or weed control at 100 g/ha in assay [2] (setting [5]) lay in the range of 40 to 59%; in assay [2] (setting [6]), 60 to 79%; in assay [3] (setting [7]), 80 to 100%; in assay [3] (setting [8]), 80 to 100%.
Regarding `COc1ccc(-c2ccc(C(O)(c3cncnc3)C(C)(C)C)nc2)cc1` (centres unmarked) [Compound 95], the pest or weed control at 50 ppm in assay [1] (setting [4]) was 80 to 100%. In addition, the pest or weed control at 100 g/ha in assay [2] (setting [5]), in assay [2] (setting [6]), in assay [3] (setting [7]) and in assay [3] (setting [8]) was 80 to 100% each time.
